Drawing on patent US20070161645A1, “Thiazole inhibitors targeting resistant kinase mutations” (TargeGen, Inc., priority 2005, published 2007), this text covers IC50 for 23 compounds.

Structures can show the parent of a compound that is named as a salt. Where two headings read alike, the source gives them in different places.

One assay concerns the target T1, Abl kinase (Homo sapiens, UniProt P00519).
T1 construct: purchased Invitrogen
Nature of the assay: Abl Kinase Assay (KinaseGlo luminescent detection of residual ATP). The format is biochemical.

In a further assay the target is T2, Abl (T315I) (Homo sapiens, UniProt P00519, T315I).
T2 construct: purchased Upstate
Nature of the assay: Abl (T315I) Kinase Assay (KinaseGlo luminescent detection of residual ATP). Type of assay: biochemical. On the procedure:
The assay was performed similarly to the Abl kinase assay. Abl (T3151) (Upstate, 17 ng/well); Abltide substrate (100 μM) and ATP (5 nM) comprised the reaction mixture. Compound was similarly diluted, and the reaction plate was incubated for 60 minutes at 37° C. IC50's were calculated as for the Abl kinase assay using GraphPad Prism4.

Setting [1] is: Abl kinase 20 ng/well, Abltide 100 μM, ATP 500 nM, 60 minutes at 37° C., read-out: Abl IC50.
Setting [2] is: Abl (T315I) 17 ng/well, Abltide 100 μM, ATP 5 nM, 60 minutes at 37° C., read-out: Abl (T315I) IC50.

Experimental for Abl kinase: Kinase activity was assessed using luminescent detection (KinaseGlo, Promega) of residual ATP concentration in reaction mixtures containing optimized levels of kinase, substrate, ATP, compound and appropriate buffers. Kinase, substrate and ATP concentrations were determined per the supplier's recommendations. Briefly, this involved running concentration curves to select for optimal signal.
The reaction mixture (50 μl/well) consisted of Abl kinase (Invitrogen, 20 ng/well); Abltide peptide substrate (Upstate, 100 μM) and ATP (500 nM). Each compound was evaluated at a top concentration of 10 μM with 1:3 dilution steps, 10 dilution steps total. Compound was diluted into DMSO and transferred to the reaction plate, resulting in a final DMSO concentration of 2%. This amount of DMSO was determined not to interfere with the enzyme. The reaction was conducted at 37° C. for 60 minutes. The degree of inhibition was assessed using IC50 determinations, which were obtained using GraphPad Prism4.

Consider `Oc1cccc(/C=C/c2cnc(Nc3cccc(N4CCNCC4)c3)s2)c1` [Compound X, 3-((E)-2-(2-(3-(Piperazin-1-yl)phenylamino)thiazol-5-yl)vinyl)phenol], for which the figures for the IC50 on Abl kinase and at Abl (T315I) were 0.014 µM and 0.381 µM, respectively.
Take `Cc1nc(Nc2ncc(/C=C/c3ccc4[nH]ccc4c3)s2)cc(N2CCNCC2)n1` [Compound XV, {5-[2-(1H-Indol-5-yl)-vinyl]-thiazol-2-yl}-(2-methyl-6-piperazin-1-yl-pyrimidin-4-yl)-amine]: the IC50 was found to be 0.054 µM on Abl kinase (setting [1]) and 0.343 µM on Abl (T315I) (setting [2]).
Taken in the same sequence, the figures for `Cc1nc(Nc2ncc(/C=C/c3cccc(O)c3)s2)cc(N2CCC(O)CC2)n1` [Compound VIII, trans-1-(6-{5-[2-(3-Hydroxy-phenyl)-vinyl]-thiazol-2-ylamino}-2-methyl-pyrimidin-4-yl)-piperidin-4-ol] were 0.024 µM and 0.208 µM.
Turning to `O=S(=O)(c1cccc(Nc2ncc(/C=C/c3cccc(O)c3)s2)c1)N1CCNCC1` [Compound VI, 3-(-{2-[3-(Piperazine-1-sulfonyl)-phenylamino]-thiazol-5yl}-vinyl)-phenol], the IC50 stood at 0.129 µM against Abl kinase and 2.65 µM against Abl (T315I).
On to `Oc1ccc(/C=C/c2cnc(Nc3cccc(N4CCNCC4)c3)s2)cc1` [Compound XIV, 4-{2-[2-(3-Piperazin-1-yl-phenylamino)-thiazol-5-yl]-vinyl}-phenol], for which the IC50 at Abl kinase (setting [1]) was found to be 0.024 µM; on Abl (T315I) (setting [2]), 0.051 µM.
Take `O=S(=O)(NCCN1CCCC1)c1ccc(Nc2ncc(C=Cc3cc(O)ccc3Cl)s2)cc1` [Compound IV, 4-{5-[2-(2-Chloro-5-hydroxy-phenyl)-vinyl]-thiazol-2-ylamino}-N-(2-pyrrolidin-1-yl-ethyl)-benzenesulfonamide]: the IC50 on Abl kinase (setting [1]) is 0.89 µM.
Regarding `OCCN1CCN(c2cccc(Nc3ncc(/C=C/c4ccc5[nH]ccc5c4)s3)c2)CC1` [Compound V, 2-(4-(3-(5-((E)-2-(1H-indol-5-yl)vinyl)thiazol-2-ylamino)phenyl)piperazin-1-yl)ethanol], the IC50 came to 0.174 µM on Abl kinase and 1.09 µM on Abl (T315I).
Taken in the same sequence, the figures for `COc1cccc(/C=C/c2cnc(Nc3cc(N4CCNCC4)nc(C)n3)s2)c1` [Compound XXI, (E)-5-(3-Methoxystyryl)-N-(2-methyl-6-(piperazin-1-yl)pyrimidin-4-yl)thiazol-2-amine hydrochloride] were 0.224 µM and 0.605 µM.
For `O=S(=O)(c1ccc(Nc2ncc(/C=C/c3cccc(O)c3)s2)cc1)N1CCNCC1` [Compound XI, 3-(-{2-[4-(Piperazine-1-sulfonyl)-phenylamino]-thiazol-5yl}-vinyl)-phenol], the IC50 on Abl kinase (setting [1]) turned out to be 0.137 µM; at Abl (T315I) (setting [2]), 0.437 µM.
As to `Oc1cccc(/C=C/c2cnc(Nc3ccc(N4CCNCC4)cc3)s2)c1` [Compound IX, 3-((E)-2-(2-(4-(Piperazin-1-yl)phenylamino)thiazol-5-yl)vinyl)phenol], the IC50 against Abl kinase worked out at 0.015 µM; against Abl (T315I) it was 0.154 µM.
With `Cc1nc(Nc2ncc(/C=C/c3cccc4[nH]ncc34)s2)cc(N2CCNCC2)n1` [Compound XVI, {5-[2-(1H-Indazol-4-yl)-vinyl]-thiazol-2-yl}-(2-methyl-6-piperazin-1-yl-pyrimidin-4-yl)-amine], the IC50 stood at 0.02 µM on Abl kinase (setting [1]) and 0.328 µM on Abl (T315I) (setting [2]).
Taken in the same sequence, the figures for `Cc1nc(Nc2ncc(/C=C\c3cccc(O)c3)s2)cc(N2CCC(O)CC2)n1` [Compound VII, cis-1-(6-{5-[2-(3-Hydroxy-phenyl)-vinyl]-thiazol-2-ylamino}-2-methyl-pyrimidin-4-yl)-piperidin-4-ol] were 0.029 µM and 0.269 µM.
Regarding `CN(CCN1CCCC1)S(=O)(=O)c1cccc(Nc2ncc(/C=C/c3ccc(O)cc3)s2)c1` [Compound II, 3-{5-[2-(4-Hydroxy-phenyl)-vinyl]-thiazol-2-ylaminol}-N-methyl-N-(2-pyrrolidin-1-yl-ethyl)-benzenesulfonamide, Hydrochloride], the figures for the IC50 on Abl kinase and against Abl (T315I) were 0.393 µM and 0.827 µM, respectively.
Taken in the same sequence, the figures for `O=S(=O)(c1ccc(Nc2ncc(/C=C/c3ccc(O)cc3)s2)cc1)C1CCNCC1` were 0.215 µM and 0.262 µM.
`O=C(Nc1ccc(/C=C/c2cnc(Nc3cccc(N4CCNCC4)c3)s2)cc1)c1cccc(C(F)(F)F)c1` [Compound XXIII, N-(4-{2-[2-(3-Piperazin-1-yl-phenylamino)-thiazol-5-yl]-vinyl}-phenyl)-3-trifluoromethyl-benzamide]: the half-inhibitory concentration (IC50) at Abl kinase (setting [1]) stood at 0.307 µM; on Abl (T315I) (setting [2]), 7.14 µM.
Taken in the same sequence, the figures for `Cc1nc(Nc2ncc(/C=C/c3ccc(Cl)c4[nH]ccc34)s2)cc(N2CCNCC2)n1` [4-{5-[2-(3-Hydroxy-phenyl)-vinyl]-pyrimidine-2-ylamino}-N-piperdin-4-yl-benzenesulfonamide] were 0.07 µM and 0.05 µM.
`Oc1ccc(/C=C/c2cnc(Nc3cccc(OCCN4CCCC4)c3)s2)cc1` [Compound XXII, 4-(2-{2-[3-(2-Pyrrolidin-1-yl-ethoxy)-phenylamino]-thiazol-5-yl}-vinyl)-phenol]: the results for the IC50 on Abl kinase and on Abl (T315I) were 0.161 µM and 0.272 µM, respectively.
As to `Oc1cccc(/C=C/c2cnc(Nc3cc(N4CCNCC4)ncn3)s2)c1` [Compound XVII, 3-{2-[2-(6-Piperazin-1-yl-pyrimidin-4-ylamino)-thiazol-5-yl]-vinyl}-phenol], the IC50 at Abl kinase (setting [1]) worked out at 0.0044 µM; on Abl (T315I) (setting [2]), 0.035 µM.
Consider `Cc1nc(Nc2ncc(/C=C/c3cccc(O)c3)s2)cc(N2CCNCC2)n1` [Compound XX, (E)-3-(2-(2-(2-Methyl-6-(piperazin-1-yl)pyrimidin-4-ylamino)thiazol-5-yl)vinyl)phenol hydrochloride], for which the IC50 was found to be 0.0015 µM against Abl kinase and 0.018 µM against Abl (T315I).
`Cc1nc(Nc2ncc(/C=C/c3ccc4[nH]ncc4c3)s2)cc(N2CCNCC2)n1` [Compound XXIV, {5-[2-(1H-Indazol-5-yl)-vinyl]-thiazol-2-yl}-(2-methyl-6-piperazin-1-yl-pyrimidin-4-yl)-amine]: the IC50 on Abl kinase (setting [1]) amounted to 0.016 µM; at Abl (T315I) (setting [2]), 0.35 µM.
In the case of `Cc1nc(Nc2ncc(/C=C/c3ccc4nc(N)sc4c3)s2)cc(N2CCNCC2)n1` [Compound XIX, 6-[(E)-2-{2-[(2-Methyl-6-piperazin-1-ylpyrimidin-4-yl)amino]-1,3-thiazol-5-yl}vinyl]-1,3-benzothiazol-2-amine], the IC50 stood at 0.016 µM at Abl kinase and 0.111 µM against Abl (T315I).
In the case of `Cc1nc(Nc2ncc(/C=C/c3cccc(O)c3)s2)cc(N2CCCNCC2)n1` [Compound XVIII, 3-{2-[2-(6-[1,4]Diazepan-1-yl-2-methyl-pyrimidin-4-ylamino)-thiazol-5-yl]-vinyl}-phenol], the IC50 at Abl kinase (setting [1]) was found to be 0.0027 µM; at Abl (T315I) (setting [2]) it was 0.031 µM.
Taken in the same sequence, the figures for `Cc1nc(Nc2ncc(/C=C/c3ccc(O)cc3)s2)cc(N2CCN(CCO)CC2)n1` [Compound III, 4-[2-(2-{6-[4-(2-Hydroxy-ethyl)-piperazin-1-yl]-2-methyl-pyrimidin-4-yl-amino}-thiazol-5-yl)-vinyl]-phenol] were 0.026 µM and 0.066 µM.
